Measured values: patent publication US20070072815A1, “Methods and kits to increase the efficiency of oligonucleotide-directed nucleic acid sequence alteration” (priority 2004, published 2007)
“Also recorded” adds a separate entry of the source.

Experiments:
[1] = system: mutant eGFP gene in DLD-1-1 cells; assay: eGFP gene correction (oligonucleotide-directed sequence alteration) in DLD-1-1 cells, FACS readout; type: cell-based; conditions: for effect on correction when added after electroporation: recovery period, AraC 2-48 hrs, aphidicolin 6 μM at 2, 6 and 24 hrs
Protocol: Cell line and culture conditions: DLD-1 cells are obtained from ATCC (American Type Cell Culture, Manassas, Va.). DLD-1 integrated clone 1 (DLD-1-1) is obtained by integration of the vector pEGFP-N3 containing a single point mutation (TAG) in the eGFP gene, as described in copending U.S. patent application Ser. No. 10/986,418, filed Nov. 10, 2004 (“Mammalian Cell Lines for Detecting, Monitoring, and Optimizing Oligonucleotide-Mediated Chromosomal Sequence Alteration”). Cells are grown in RPMI 1640 medium with 2 mM glutamine, 4.5 g/L glucose, 10 mM HEPES, 1 mM sodium pyruvate and supplemented with 10% FBS. Cells are maintained at 5% CO2, 37° C. and under selection in 200 μg/ml G418 (Gibco, Invitrogen Co., Carlsbad, Calif.).
eGFP gene correction: Cells grown in complete medium supplemented with 10% FBS are trypsinized and harvested by centrifugation. The cell pellet is resuspended in serum-free medium at a density of 1×10^6 cells/100 μl and transferred to a 4 mm gap cuvette (Fisher Scientific, Pittsburgh, Pa.). The oligonucleotide is then added at a concentration of 4 μM and the cells are electroporated (LV, 250V, 13 msec, 2 pulses, 1 second interval) using a BTX ECM830 apparatus (BTX, Holliston, Mass.). The cells are then transferred to a 60 mm dish containing fresh medium supplemented with 10% FBS and incubated for 48 hrs at 37° C. before harvesting for FACS analysis.
The percentage of converted cells in a whole population is then calculated by CellQuest™ (Becton Dickinson) and GFP/PI programs. The correction efficiency is determined by dividing the number of eGFP positive cells by the number of cells analyzed in each experiment (usually 50,000 cells). Each clone is tested three times to determine the standard deviation of the correction efficiency, with standard deviation calculated using Microsoft Excel.
The experimental strategy involves the introduction of oligonucleotides into DLD-1-clone 1 cells by electroporation followed by phenotypic readout of the corrected eGFP gene, 48 hours later. The correcting oligonucleotide (EGFP3S/72NT) is 72 bases in length (72-mer), complementary to the non-transcribed strand of the mutant eGFP gene but designed to create a single mismatch in the third base of codon 67 (see FIG. 1A). It directs conversion of a TAG→TAC codon which enables phenotypic expression of eGFP, which can be detected by FACS. FIG. 1B outlines the sequence of the target gene, the 72-mer and a nonspecific 74-mer used as a control.
Oligonucleotide-Directed Sequence Alteration: The resulting synchronized populations of cells, and asynchronous controls, are grown in complete medium supplemented with 10% FBS and trypsinzed and harvested by centrifugation at 1500 rpm for 5 minutes. The cell pellet is resuspended in fresh serum-free medium at a density of 2×10^6 cells/100 μl. The entire cell suspension is mixed with 20 μg of EGFP/72NT and transferred into a 4 mm gap cuvette (Fisher Scientific, Pittsburgh, Pa., USA) followed by electroporation with two 250V pulses, each 13 ms in duration, with one second between pulses, unipolar.
Cells are incubated at room temperature for 30 min. […] Frequency of converted cells are calculated by CellQuest™ and GFP/PI programs.
Double Thymidine Block: Cells are synchronized in G1 or at the G1/S border by a double thymidine block. Twenty-four hours prior to the addition of any agent (HU, etc.), cells are plated at a density of 0.5×10^6 cells per 100 mm dish, followed by incubation in 2 mM thymidine (Sigma) for 16 hrs, washed and released in fresh medium for 10 hrs, then incubated in 2 mM thymidine for an additional 15 hrs.
FACS is then used to analyze 50,000 cells from each population to determine the percentage of cells expressing functional eGFP, as described in Example 1.

[2] = system: DLD-1-1 cells; assay: BrdU incorporation (actively replicating forks); type: cell-based; conditions: for BrdU uptake (cells actively incorporating DNA bases): 24 hour treatment, 500 μM ddC, ddI or AraC (FIG. 17B)
Protocol: (§1) For cell cycle analysis, 1×10^6 cells are plated 24 hrs before the treatment with drugs and after 24 hrs of treatment, cells are trypsinized, resuspended in 300 μl cold PBS and fixed by adding 700 μl cold ethanol. Cells are then resuspended in 1 ml of PBS containing 500 µg/ml RNaseA and […] propidium iodide and analyzed for DNA content.
(§2) The resulting cells are then either analyzed by FACS, or the percentage of cells in S phase is determined by BrdU incorporation. FIG. 8 presents the results of both sets of experiments.
As stated above, the lack of stimulation observed in cells treated with AraC could be explained by the reduced number of cells passing through S phase or the absence of actively replicating forks. If true, we might predict that a rise in the gene repair frequency would appear if the cells are released from the AraC block and replication forks are allowed to restart prior to the electroporation of the oligonucleotide. We test this prediction by treating the cells with AraC for 24 hrs and then releasing them by washing out the drug at specific times. We measure the level of BrdU incorporation at the time of electroporation and evaluate the frequency of correction 48 hrs later.

[3] = system: DLD-1-1 cells; assay: Cell cycle analysis (DNA content by FACS), cells in S phase; type: cell-based
Protocol: as §1
The effect of cell cycle on the efficiency of ODSA is assessed by synchronizing a population of DLD-1-1 cells with mimosine, which arrests cells in early S phase, and serum starvation. Cells are seeded at a density of 0.8×10^6 per 100 mm dish, attached for 20 hours and then cultured in RMPI-1640 medium containing 0.2% fetal bovine serum (FBS). These cells are grown for 48 hours followed by treatment with 0.1 mM mimosine (Sigma, St. Louis, Mo., USA) for 20 hours. Cell are washed twice with PBS and released at various times into fresh medium complemented with 10% FBS before electroporation. Cells are rinsed once with PBS, trypsinized and harvested by centrifugation and resuspended in PBS containing 10 μg/ml propidium iodide, 0.03% Triton-100 and 1 mg/ml RNase. Cells are incubated at room temperature for 1 hour before the measurement of DNA content by FACSCalibur™ flow cytometer. The percentage of cells at various stages of the cell cycle is determined by ModFit L™ software (Verity Software House, Inc., Topsham, Me., USA).
as §2

[4] = system: α-galactosidase A (GLA) activity in Fabry's cell line DMN-1; assay: GLA activity in Fabry's cells after ODSA; type: cell-based, human
Text: Cell line DMN-1, a human fibroblast cell line derived from a human patient with Fabry's disease, is obtained from the National Institutes of Health (NIH). These cells are used to measure the efficiency of correction of a mutant allele of α-galactosidase A (GLA) using methods of the present invention. The specific disease-causing mutation in the Fabry's cell line used herein is A143P, caused by a G→C mutation in the gene. See Branton et al., Medicine (Baltimore) (2002) 81(2): 122-38.
All four oligonucleotides are used to effect ODSA substantially as described in Example 1, with the exception that cells are transfected with oligonucleotides, rather than electroporated. Oligos are added at 5 μg, 10 μg or 30 μg per reaction. After ODSA is performed, cells are cultured and assayed for GLA activity according to the method of Brady, as described in Medin et al., Proc. Natl. Acad. Sci. (USA) (1996) 93:7917-22, the disclosure of which is incorporated herein by reference in its entirety. The GLA activity is used as a measure of gene correction by comparing the activities in treated versus untreated cultures. The correction efficiency is subsequently confirmed by sequencing of the locus of mutation in a number of treated cells.
[…] Unlike the experiments involving correction of eGFP in DLD-1-1 cells described in Example 1, however, certain of the agents (VPA, caffeine, TSA) in the experiments in this example are not added before transfection, but are instead added only after transfection, during the recovery period.
The means of introducing oligonucleotide into the target cells also differs from previous examples, with transfection in the presence of the transfection enhancing agent FuGENE™ 6 (FG) (Roche Diagnostics Corp., Indianapolis, Ind., USA) being used rather than electroporation. Each transfection reaction includes 100 μl of target cells and 12 μl of FG unless otherwise indicated, despite the fact that FG is not explicitly listed for each datapoint in the relevant figures. Otherwise the procedures used in the DLD-1-1 experiments and the Fabry's experiments are similar.
The results of a further series of experiments are shown at FIG. 15D, where the data are presented as GLA activity as nanomolar (nM) concentration of the product of the GLA assay generated per hour per unit protein concentration (as are the data in FIGS. D and E).

[5] = 24 hour treatment, 500 μM ddC, ddI or AraC (FIG. 17A)
[6] = 2-5 μM VPA in the recovery phase
[7] = serum starvation + mimosine, 8 hours after release

Q: How did the “effect on correction when added after electroporation” value [1] turn out when C[C@@]1(CO)[C@H](O)CC[C@@]2(C)[C@H]1CC[C@H]1C[C@@H]3C[C@@]12CC[C@]3(O)CO [Aphidicolin, aphidicolin] was run?
A: The value was “low level of correction”.

Q: Which results are given for Nc1ccn([C@@H]2O[C@H](CO)[C@@H](O)[C@@H]2O)c(=O)n1 [AraC, 1-β-D-arabinofuransylcytosine]?
A: effect on correction levels ([1]; AraC 5 μM to 250 μM, 24 hrs before electroporation): no enhancement in correction levels; also recorded: significantly insignificant effect; time post release at which gene repair activity reaches maximal level ([1]; AraC 24 hrs, then washed out before electroporation): 8 h; effect on correction when added after electroporation [1]: correction levels drop substantially; BrdU uptake (cells actively incorporating DNA bases) [2]: essentially zero; time after release at which elevation in BrdU incorporation is observed ([2]; AraC 24 hrs, then washed out): ≤ 2 h; cells in S phase [3, 5]: 26%; reduction in S phase cells ([3]; AraC at 20 μM and 250 μM): 9%

Q: Which “GLA activity versus no treatment control” value ([4]; 7.5 nM CPT during recovery) does the source give for CC[C@@]1(O)C(=O)OCc2c1cc1n(c2=O)Cc2cc3ccccc3nc2-1 [CPT, camptothecin] here?
A: The value was “approximately six-fold”.

Q: What about the GLA activity ([4]; 7.5 nM CPT during recovery, 49T/gg) of the same molecule?
A: Its GLA activity is 26.84 nM product per hour per unit p.

Q: And the “effect on GLA activity” value ([4]; CPT 7.5 nM (FIG. 15D summary))?
A: The value was “more than doubles GLA activity”.

Q: And the “effect on correction efficiency” value ([1]; CPT pretreatment at 30-100 nM)?
A: The value was “triples correction efficiency”.

Q: How did the “effect on ddC-enhanced GLA activity” value ([4]; synchronized cells, 500 μM ddC, 4 mM caffeine or 100 ng/ml TSA during recovery period) turn out when CC(/C=C/C(=O)NO)=C\[C@@H](C)C(=O)c1ccc(N(C)C)cc1 [TSA, trichostatin A] was run?
A: The value was “eliminate the ability of 500 μM ddC to enhance GLA activity”.

Q: What does the source list for COc1cc([C@@H]2c3cc4c(cc3[C@@H](O[C@@H]3O[C@@H]5CO[C@@H](C)O[C@H]5[C@H](O)[C@H]3O)[C@H]3COC(=O)[C@H]23)OCO4)cc(OC)c1O [VP16, 4′-demethylepipodophyllotoxin-9-(4,6-O-ethylidene-beta-D-glucopyranoside)]?
A: percentage of cells in S phase by BrdU ([2]; 24 hours, 1 mM HU or 3 μM VP16): 56%; cells in S-phase ([3]; 24 hours, 1 mM HU or 3 μM VP16, FACS analysis): 56%

Q: CCCC(CCC)C(=O)O [VPA, valproic acid] was tested. Which “GLA activity versus untreated cells” value ([4]; 5 μM VPA during recovery period) did it give?
A: Its value is “over 20 fold”.

Q: What about the GLA activity ([4]; 5 μM VPA during recovery period after transfection with 49T/gg) of the same molecule?
A: The GLA activity was 98.71 nM product per hour per unit p.

Q: And the “GLA activity over untreated cells” value [4, 6]?
A: The value was 25 fold.

Q: What about the “GLA activity versus cells treated identically without VPA” value [4, 6] of the same molecule?
A: Its value is “more than eight-fold”.

Q: O=c1[nH]cnc2c1ncn2[C@H]1CC[C@@H](CO)O1 [ddI, dideoxyinosine] was tested. Which “effect on gene correction” value ([1]; various dosages of ddI) did it give?
A: The value was “no significant increase in gene correction; also recorded: statistically insignificant effect”.

Q: What about the “BrdU uptake (cells actively incorporating DNA bases)” value [2] of the same molecule?
A: Its value is “no difference from non-treated cells”.

Q: What about the “cells in S phase” value [3, 5] of the same molecule?
A: The value was “does not show an increase in the number of cells in S phase”.

Q: With NC(Cn1ccc(=O)c(O)c1)C(=O)O (stereo not drawn) [mimosine] as the molecule, how does the “increase of correction efficiency versus asynchronous cells” value [1, 7] read?
A: Its value is 2.5 fold.

Q: What about the “cells in S phase” value ([3]; serum starvation + 0.1 mM mimosine, 8 hours after release) of the same molecule?
A: Its value is 86%.

Q: And the “increase of proportion of cells in S phase versus asynchronous cells” value [3, 7]?
A: The value was 2.5 fold.

Q: Which results are given for COc1cc(C=O)ccc1O [vanillin]?
A: effect on correction efficiency ([1]; 1 mM vanillin, before or after electroporation, with or without ddC): no effect on correction efficiency; also recorded: does not inhibit gene repair activity; effect on ddC-stimulated gene repair ([1]; inhibitor added with ddC before electroporation (FIG. 20)): statistically unchanged
